Laboratory results published in ChEMBL document CHEMBL1124165, “1-(2,3-Anhydro-beta-D-lyxofuranosyl)cytosine derivatives as potential inhibitors of the human immunodeficiency virus” (J Med Chem, 1988).

What follows are compounds tested on ATH-8 cell line (assay: Tested in vitro for concentration with significant protective effect on ATH8 cells exposed to HIV). Details: Homo sapiens.
Assay type: functional, cell-based

Compound	Concentration
Nc1ccn([C@@H]2O[C@H](CO)[C@H]3OC23)c(=O)n1 (some centres undefined)	5 µM

The compounds below were run on ATH-8 cell line (assay: Tested in vitro for concentration with significant protective effect on ATH8 cells exposed to HIV; No significant effect at concentrations 100 uM). Details: Homo sapiens.
Assay type: functional, cell-based

Compound	Concentration
Cc1cn([C@@H]2O[C@H](CO)[C@H](N=[N+]=[N-])C2O)c(=O)[nH]c1=O (some centres undefined)	No significant effect at concentrations 100 uM
COc1ccn([C@@H]2O[C@H](CO)[C@H]3OC23)c(=O)n1 (some centres undefined)	No significant effect at concentrations 100 uM
CNc1ccn([C@@H]2O[C@H](CO)[C@H]3OC23)c(=O)n1 (some centres undefined)	No significant effect at concentrations 100 uM
O=c1[nH]c(=O)n([C@@H]2O[C@H](CO)[C@H]3OC23)cc1Br (some centres undefined)	No significant effect at concentrations 100 uM
C[C@H]1[C@H](O)[C@H](n2ccc(=O)[nH]c2=O)O[C@@H]1CO	No significant effect at concentrations 100 uM
[N-]=[N+]=N[C@@H]1C(O)[C@H](n2ccc(N)nc2=O)O[C@@H]1CO (some centres undefined)	No significant effect at concentrations 100 uM
[N-]=[N+]=N[C@@H]1C(O)[C@H](n2ccc(=O)[nH]c2=O)O[C@@H]1CO (some centres undefined)	No significant effect at concentrations 100 uM
O=c1nc(NO)ccn1[C@@H]1O[C@H](CO)[C@H]2OC12 (some centres undefined)	No significant effect at concentrations 100 uM
Cc1cn([C@@H]2O[C@H](CO)C[C@@H]2O)c(=O)[nH]c1=O	No significant effect at concentrations 100 uM
Nc1ccn([C@@H]2O[C@H](CO)C[C@@H]2O)c(=O)n1	No significant effect at concentrations 100 uM
Cc1cn([C@@H]2O[C@H](CO)[C@H]3OC23)c(=O)[nH]c1=O (some centres undefined)	No significant effect at concentrations 100 uM
O=c1ccn([C@@H]2O[C@H](CO)[C@H]3OC23)c(=O)[nH]1 (some centres undefined)	No significant effect at concentrations 100 uM

Species on record: Homo sapiens
Assay: Tested in vitro for concentration with significant protective effect on CD4+ cells exposed to HIV
Assay type: functional
Details: not given

Compound	Concentration
Nc1ccn([C@@H]2O[C@H](CO)[C@H]3OC23)c(=O)n1 (some centres undefined)	5 µM
